Values quoted from earlier work in article PMC3328449, “Inhibition of Diacylglycerol–Sensitive TRPC Channels by Synthetic and Natural Steroids” (PLoS ONE, 2012).

Legend:
TRPC3 = tested on: TRPC3; design: method as in PMID 19289841; conditions: read-out: half maximal inhibitory concentration (IC50), TRPC3; cited from earlier work
other TRPC channels = tested on: other TRPC channels; design: method as in PMID 19289841; conditions: cited from earlier work

## CCOC(=O)c1cnn(-c2ccc(NC(=O)C(Cl)=C(Cl)Cl)cc2)c1C(F)(F)F [Pyr3]
TRPC3
  IC50: 700 nM
Other TRPC channels
  Effects on other TRPC channels: without having effects
